{"source": "patent US7709444B2", "about": "“Echinocandin pharmaceutical formulations containing micelle-forming surfactants” (Pfizer Inc., priority 1999, dated 2010)", "key": {"[1]": {"test": "Solubility studies of Com 6(a) in surfactant test solutions, reverse phase HPLC", "type": "physicochemical", "conditions": "room temperature", "protocol": "Solubility studies were performed at room temperature by transferring 5 ml of test solution (surfactant in water optionally containing a bulking agent, a buffer or a stabilizing agent) and 50 mg of Com 6(a) into a glass test tube. The test tubes were agitated overnight and examined for excess solid. Test tubes containing excess solid were removed for analysis. […] All samples were allowed to stand 1 h, supernatant was removed, filtered and analyzed by reverse phase HPLC to determine the potency of Com 6(a) per Ml of solution."}, "[2]": {"test": "Stability of freeze-dried formulations, related substances by reverse phase HPLC, storage at 40° C.", "type": "physicochemical", "protocol": "The stability of solution and freeze-dried formulations was evaluated by monitoring a sample of the formulation for the percent increase in related substances by reverse phase HPLC at initial, 2 weeks and 4 weeks of storage at 40° C."}}, "note": "*1 amine or outer side, *2 acyl side, *3 side chain or, on linkers, in order; H or OH if unused. Where a SMILES comes first, the peptide text is derived from it. Bridges are numbered along the chain shown (N, C = ends). [ ]: non-standard residue; d: D form. The star is where a group is joined. ξ: configuration not given here. pTerphenylCO(4''-OnC5H11) = CCCCCOc1ccc(-c2ccc(-c3ccc(C(=O)*)cc3)cc2)cc1; ξOrn(4,5-diOH) = O=C(C(CC(O)C(O)N[*:3])N[*:1])[*:2]; ξhTyr(βξ-OH,γξ-OH) = NC(C(=O)O)C(O)C(O)c1ccc(O)cc1; ξPro(3ξ-OH,4ξ-Me) = CC1CNC(C(=O)O)C1O; Hyp = O=C(O)[CH]1C[CH](O)CN1", "data": [{"molecule": "CCCCCOc1ccc(-c2ccc(-c3ccc(C(=O)NC4CC(O)C(O)NC(=O)C5C(O)C(C)CN5C(=O)C(C(C)O)NC(=O)C(C(O)C(O)c5ccc(O)cc5)NC(=O)C5CC(O)CN5C(=O)C(C(C)O)NC4=O)cc3)cc2)cc1", "note": "(stereo not drawn) [Compound 6(a)] ({pTerphenylCO(4''-OnC5H11)}-[ξOrn(4,5-diOH)]T[Hyp][ξhTyr(βξ-OH,γξ-OH)]T[ξPro(3ξ-OH,4ξ-Me)]; lactam 1-C; configuration not given here)", "values": [{"measurement": "Comp6(a) Potency (solubility)", "setting": "[1]; Poly 20 [5]/Poly 80 [5]", "value": 4800, "unit": "µg/mL"}, {"measurement": "Comp6(a) Potency (solubility)", "setting": "[1]; Poly 20 [5]/Poly 80 [10]", "value": 8000, "unit": "µg/mL"}, {"measurement": "Comp6(a) Potency (solubility)", "setting": "[1]; Poly 20 [5]/pluronic F68 [10]", "value": 1130, "unit": "µg/mL"}, {"measurement": "Comp6(a) Potency (solubility)", "setting": "[1]; Poly 80 [5]", "value": 1000, "unit": "µg/mL"}, {"measurement": "Comp6(a) Potency (solubility)", "setting": "[1]; Poly 80 [10]", "value": 4400, "unit": "µg/mL"}, {"measurement": "Comp6(a) Potency (solubility)", "setting": "[1]; Poly 80 [15]", "value": 7200, "unit": "µg/mL"}, {"measurement": "Comp6(a) Potency (solubility)", "setting": "[1]; Poly 80 [20]/sodium taurodeoxycholate [20]", "value": 43120, "unit": "µg/mL"}, {"measurement": "Comp6(a) Potency (solubility)", "setting": "[1]; Poly 80 [25]", "value": 13200, "unit": "µg/mL"}, {"measurement": "Comp6(a) Potency (solubility)", "setting": "[1]; Sur None", "value": "<100", "unit": "µg/mL"}, {"measurement": "Comp6(a) Potency (solubility)", "setting": "[1]; ethoxylated castor oil (cremophor EL) [25]", "value": 11000, "unit": "µg/mL"}, {"measurement": "% Related Substances", "setting": "[2]; 6(a) Potency 1, Poly 80(25), Cit(1.9), Man(50), 0 wks", "value": 3.22, "unit": "%"}, {"measurement": "% Related Substances", "setting": "[2]; 6(a) Potency 1, Poly 80(25), Cit(1.9), Man(50), 2 wks", "value": 10.24, "unit": "%"}, {"measurement": "% Related Substances", "setting": "[2]; 6(a) Potency 1, Poly 80(25), Cit(1.9), Man(50), 4 wks", "value": 12.16, "unit": "%"}, {"measurement": "% Related Substances", "setting": "[2]; 6(a) Potency 1, Poly 80(25), Cit(9.6), Man(50), 0 wks", "value": 3.36, "unit": "%"}, {"measurement": "% Related Substances", "setting": "[2]; 6(a) Potency 1, Poly 80(25), Cit(9.6), Man(50), 2 wks", "value": 11.74, "unit": "%"}, {"measurement": "% Related Substances", "setting": "[2]; 6(a) Potency 1, Poly 80(25), Cit(9.6), Man(50), 4 wks", "value": 18.63, "unit": "%"}, {"measurement": "% Related Substances", "setting": "[2]; 6(a) Potency 1, Poly 80(25), Cit(19.2), Man(50), 0 wks", "value": 3.37, "unit": "%"}, {"measurement": "% Related Substances", "setting": "[2]; 6(a) Potency 1, Poly 80(25), Cit(19.2), Man(50), 2 wks", "value": 17.29, "unit": "%"}, {"measurement": "% Related Substances", "setting": "[2]; 6(a) Potency 1, Poly 80(25), Cit(19.2), Man(50), 4 wks", "value": 22.61, "unit": "%"}, {"measurement": "% Related Substances", "setting": "[2]; 6(a) Potency 5, Poly 80(12.5), no B, Lac(10), Man(50), 0 wks", "value": 6.42, "unit": "%"}, {"measurement": "% Related Substances", "setting": "[2]; 6(a) Potency 5, Poly 80(12.5), no B, Lac(10), Man(50), 2 wks", "value": 6.98, "unit": "%"}, {"measurement": "% Related Substances", "setting": "[2]; 6(a) Potency 5, Poly 80(12.5), no B, Lac(10), Man(50), 4 wks", "value": 6.85, "unit": "%"}, {"measurement": "% Related Substances", "setting": "[2]; 6(a) Potency 8, Poly 80 (20), no B, Lac(10), Man(50), 0 wks", "value": 5.99, "unit": "%"}, {"measurement": "% Related Substances", "setting": "[2]; 6(a) Potency 8, Poly 80 (20), no B, Lac(10), Man(50), 2 wks", "value": 6.16, "unit": "%"}, {"measurement": "% Related Substances", "setting": "[2]; 6(a) Potency 8, Poly 80 (20), no B, Lac(10), Man(50), 4 wks", "value": 5.74, "unit": "%"}, {"measurement": "% Related Substances", "setting": "[2]; 6(a) Potency 10, Poly 80(25), Cit(9.6), Suc(5), Man(50), 0 wks", "value": 3.70, "unit": "%"}, {"measurement": "% Related Substances", "setting": "[2]; 6(a) Potency 10, Poly 80(25), Cit(9.6), Suc(5), Man(50), 2 wks", "value": 5.60, "unit": "%"}, {"measurement": "% Related Substances", "setting": "[2]; 6(a) Potency 10, Poly 80(25), Cit(9.6), Suc(5), Man(50), 4 wks", "value": 6.01, "unit": "%"}, {"measurement": "% Related Substances", "setting": "[2]; 6(a) Potency 10, Poly 80(25), Cit(9.6), Suc(10), Man(50), 0 wks", "value": 3.77, "unit": "%"}, {"measurement": "% Related Substances", "setting": "[2]; 6(a) Potency 10, Poly 80(25), Cit(9.6), Suc(10), Man(50), 2 wks", "value": 5.41, "unit": "%"}, {"measurement": "% Related Substances", "setting": "[2]; 6(a) Potency 10, Poly 80(25), Cit(9.6), Suc(10), Man(50), 4 wks", "value": 5.88, "unit": "%"}, {"measurement": "% Related Substances", "setting": "[2]; 6(a) Potency 10, Poly 80(25), Cit(9.6), Suc(50), no BA, 0 wks", "value": 3.60, "unit": "%"}, {"measurement": "% Related Substances", "setting": "[2]; 6(a) Potency 10, Poly 80(25), Cit(9.6), Suc(50), no BA, 2 wks", "value": 5.4, "unit": "%"}, {"measurement": "% Related Substances", "setting": "[2]; 6(a) Potency 10, Poly 80(25), Cit(9.6), Suc(50), no BA, 4 wks", "value": 6.01, "unit": "%"}, {"measurement": "% Related Substances", "setting": "[2]; 6(a) Potency 10, Poly 80(25), Cit(9.6), Tre(50), no BA, 0 wks", "value": 3.73, "unit": "%"}, {"measurement": "% Related Substances", "setting": "[2]; 6(a) Potency 10, Poly 80(25), Cit(9.6), Tre(50), no BA, 2 wks", "value": 4.83, "unit": "%"}, {"measurement": "% Related Substances", "setting": "[2]; 6(a) Potency 10, Poly 80(25), Cit(9.6), Tre(50), no BA, 4 wks", "value": 6.19, "unit": "%"}, {"measurement": "% Related Substances", "setting": "[2]; 6(a) Potency 10, Poly 80(25), Tar(1.13), Fru(10), Man(50), 0 wks", "value": 2.49, "unit": "%"}, {"measurement": "% Related Substances", "setting": "[2]; 6(a) Potency 10, Poly 80(25), Tar(1.13), Fru(10), Man(50), 4 wks", "value": 2.42, "unit": "%"}, {"measurement": "% Related Substances", "setting": "[2]; 6(a) Potency 10, Poly 80(25), no B, Lac(10), Man(50) (first of two identical lines), 0 wks", "value": 4.56, "unit": "%"}, {"measurement": "% Related Substances", "setting": "[2]; 6(a) Potency 10, Poly 80(25), no B, Lac(10), Man(50) (first of two identical lines), 2 wks", "value": 4.51, "unit": "%"}, {"measurement": "% Related Substances", "setting": "[2]; 6(a) Potency 10, Poly 80(25), no B, Lac(10), Man(50) (first of two identical lines), 4 wks", "value": 4.85, "unit": "%"}, {"measurement": "% Related Substances", "setting": "[2]; 6(a) Potency 10, Poly 80(25), no B, Lac(10), Man(50) (second of two identical lines), 0 wks", "value": 4.06, "unit": "%"}, {"measurement": "% Related Substances", "setting": "[2]; 6(a) Potency 10, Poly 80(25), no B, Lac(10), Man(50) (second of two identical lines), 2 wks", "value": 5.47, "unit": "%"}, {"measurement": "% Related Substances", "setting": "[2]; 6(a) Potency 10, Poly 80(25), no B, Lac(10), Man(50) (second of two identical lines), 4 wks", "value": 5.17, "unit": "%"}, {"measurement": "% Related Substances", "setting": "[2]; 6(a) Potency 10, Poly 80(25), no B, PEG6000(10), Man(50), 0 wks", "value": 4.13, "unit": "%"}, {"measurement": "% Related Substances", "setting": "[2]; 6(a) Potency 10, Poly 80(25), no B, PEG6000(10), Man(50), 2 wks", "value": 4.47, "unit": "%"}, {"measurement": "% Related Substances", "setting": "[2]; 6(a) Potency 10, Poly 80(25), no B, PEG6000(10), Man(50), 4 wks", "value": 8.11, "unit": "%"}, {"measurement": "% Related Substances", "setting": "[2]; 6(a) Potency 10, Poly 80(25), no B, PEG8000(10), Man(50), 0 wks", "value": 3.97, "unit": "%"}, {"measurement": "% Related Substances", "setting": "[2]; 6(a) Potency 10, Poly 80(25), no B, PEG8000(10), Man(50), 2 wks", "value": 4.23, "unit": "%"}, {"measurement": "% Related Substances", "setting": "[2]; 6(a) Potency 10, Poly 80(25), no B, PEG8000(10), Man(50), 4 wks", "value": 6.73, "unit": "%"}, {"measurement": "% Related Substances", "setting": "[2]; 6(a) Potency 10, Poly 80(25), no B, Suc(10), Man(50), 0 wks", "value": 4.26, "unit": "%"}, {"measurement": "% Related Substances", "setting": "[2]; 6(a) Potency 10, Poly 80(25), no B, Suc(10), Man(50), 2 wks", "value": 4.82, "unit": "%"}, {"measurement": "% Related Substances", "setting": "[2]; 6(a) Potency 10, Poly 80(25), no B, Suc(10), Man(50), 4 wks", "value": 4.49, "unit": "%"}, {"measurement": "% Related Substances", "setting": "[2]; 6(a) Potency 10, Poly 80(25), no B, no SA, Man(50), 0 wks", "value": 3.98, "unit": "%"}]}]}
